# From patent US5312812A, “Pharmaceutical compositions comprising novel oligopeptides exhibiting selective inhibiting effect upon the proliferation of hemopoietic cells” (Richter Gedeon Vegyeszeti Gyar Rt., priority 1990, dated 1994)
# Like-named read-outs stand apart in the source and are kept apart here. Where a SMILES comes first, the peptide text is derived from it. Where no end group is shown, it is not given here. [ ]: non-standard residue; d: D form. The star is where a group is joined. pGlu = O=C1CC[C@@H](C(=O)O)N1; Acm = CC(=O)NC*
# Legend:
# mouse bone marrow cells [1] = type: cell-based
# Experimental: For the long-term cultivation, cells isolated from mouse bone marrow were used in semi-solid agar culture. 1.5×10^5 femoral medulla cells obtained from 2-3 month old male C57B1 mice were suspended in 1 ml of "McCoy 5A" medium (product of Gibco), then the following were added: 20% by volume of horse blood-serum (product of Gibco), 16% by volume of L-cell CSF (colony stimulating factor prepared from the supernatant of […]; product of the Pharmacological Institute of the Medical University of Debrecen, Hungary) and agar-agar to 0.18% by weight. 100 μl of the semi-solid medium were cultivated in a Micropet capillary for 7 days in the above-described manner, then the colonies were counted under a Zeiss-Cytoplast stereomicroscope of 40-times magnification. The results are given as the percentage reduction of the numbers of colonies compared to the untreated control. The tests were carried out in the presence of 0.25 mmole/l mercapto ethanol (+ME) and without mercapto ethanol (-ME).
# human bone marrow cells = settings: 10^-15 to 10^-4 mole/l, 7-day in vitro treatment; cited from earlier work
# mouse bone marrow cells [2] = settings: 10^-15 to 10^-4 mole/l, 7-day in vitro treatment; cited from earlier work
# mouse = settings: two mouse species; dose of 9.1 mg/animal or 1 mg/animal; cited from earlier work
# cell proliferation = settings: cited from earlier work
compound,measurement,setting,value
"CC(=O)NCSC[C@H](NC(=O)[C@H](CC(=O)O)NC(=O)[C@H](CCC(=O)O)NC(=O)[C@@H]1CCC(=O)N1)C(=O)N[C@@H](CCCCN)C(=O)O [SEQ I.D. No: 1, Xaa Glu Asp Cys Lys] ([pGlu]EDC(Acm)K-OH)",percentage reduction of the numbers of colonies compared to the untreated control,mouse bone marrow cells [1]; 1e-12 mole/l,70%
same,percentage reduction of the numbers of colonies compared to the untreated control,mouse bone marrow cells [1]; 1e-8 mole/l,77%
same,percentage reduction of the numbers of colonies compared to the untreated control,mouse bone marrow cells [1]; 1e-4 mole/l,81%
"CC(=O)NCSC[C@H](NC(=O)[C@H](CC(=O)O)NC(=O)[C@@H](N)CCC(=O)O)C(=O)N[C@@H](CCCCN)C(=O)O [SEQ I.D. No: 2, Glu Asp Cys Lys] (H-EDC(Acm)K-OH)",percentage reduction of the numbers of colonies compared to the untreated control,mouse bone marrow cells [1],29%
same,percentage reduction of the numbers of colonies compared to the untreated control,mouse bone marrow cells [1]; 1e-12 mole/l,36%
same,percentage reduction of the numbers of colonies compared to the untreated control,mouse bone marrow cells [1]; 1e-10 mole/l,52%
same,percentage reduction of the numbers of colonies compared to the untreated control,mouse bone marrow cells [1]; 1e-9 mole/l,26%
same,percentage reduction of the numbers of colonies compared to the untreated control,mouse bone marrow cells [1]; 1e-8 mole/l,64%
same,percentage reduction of the numbers of colonies compared to the untreated control,mouse bone marrow cells [1]; 1e-6 mole/l,66%
"NCCCC[C@H](NC(=O)[C@H](CS)NC(=O)[C@H](CC(=O)O)NC(=O)[C@H](CCC(=O)O)NC(=O)[C@@H]1CCC(=O)N1)C(=O)O [SEQ I.D. No: 5, Xaa Glu Asp Cys Lys] (HELM PEPTIDE1{[Glp].E.D.C.K}$$$$V2.0)",toxicity to bone marrow cells,human bone marrow cells,not toxic
same,toxicity to bone marrow cells,mouse bone marrow cells [2],not toxic
same,toxicity to mice,mouse,not toxic
"Xaa Glu Asp Cys Lys Xaa Glu Asp Cys Lys ([pGlu]EDCK[pGlu]EDCK; not fully specified; printed as Xaa Glu Asp Cys Lys Xaa Glu Asp Cys Lys; cysteine pairing not given here) [SEQ I.D. No: 3, dimer molecule of the hemoregulating pentapeptide, Xaa is pyroglutamic acid]",effect on cell proliferation,cell proliferation,cell proliferation stimulating effect
"Xaa Glu Asp Met Lys ([pGlu]EDMK) [SEQ I.D. No: 4, Met analogue of the pentapeptide, Xaa is pyroglutamic acid]",effect on cell proliferation,cell proliferation,ineffectiveness
